Experiments:
human whole blood = test: IC50: human whole blood; type: cell-based
RAMOS = test: RAMOS_V2_IC50; type: cell-based; settings: Homo sapiens
[1] = biological target: T1, recombinant human SYK360-635 (Homo sapiens, UniProt P43405); test: SYK kinase assay, 33P ATP filtration (ENZYME_FILTRATION_IC50); type: biochemical; settings: SYK aa 360-635 0.5 nM, ATP 20 μM, peptide 5 μM, 30° C. 15 min
T1 construct: truncated construct of Spleen Tyrosine Kinase aa 360-635; made in house
Protocol: Determination of IC50 of Spleen Tyrosine Kinase (SYK) Inhibition:
SYK kinase assay is a standard kinase assay adapted to a 96 well plate format. This assay is performed in 96-well format for IC50 determination with […] which represented 10 half log dilutions and a 40 μL reaction volume. The assay measures the incorporation of radiolabeled ^33P ATP into an N-terminally biotinylated peptide substrate, derived from naturally occurring phosphoacceptor consensus sequence (Biotin-11aa DY*E). Phosphorylated products were detected upon termination of reactions with EDTA and the addition of Streptavidin coated beads. Representative results are in Table II above.
Assay plates: 96-well MultiScreen 0.65 um filter plates (Millipore Cat. No.: MADVNOB10) Streptavidin coated beads: Streptavidin Sepharose™, suspension 5.0 mL, in 50 mM EDTA/PBS diluted (1:100), (Amersham, Cat. No.: 17-5113-01)
Compounds: 10 mM in 100% dimethylsulfoxide (DMSO), final conc.: compound 0.003-100 uM in 10% DMSO
Enzyme: SYK RPA purified, truncated construct of Spleen Tyrosine Kinase aa 360-635, stock solution 1 mg/mL, MW: 31.2 KDa, final conc.:0.0005 μM.
Peptide 1: biotinylated peptide is derived from a naturally occurring phosphor-acceptor consensus sequence (Biotin-EPEGDYEEVLE), special order from QCB, stock solution 20 mM, final conc.: 5.0 μM.
ATP: Adenosine-5′-triphosphate 20 mM, (ROCHE Cat. No.: 93202720), final concentration: 20 μM
Buffer: HEPES: 2-Hydroxyethyl piperazine-2-ethanesulfonic acid (Sigma, Cat. No.: H-3375) final concentration: 50 mM HEPES pH7.5
BSA: Bovine Serum Albumin Fraction V, fatty acid free (Roche Diagnostics GmbH, Cat. No. 9100221) diluted to a final concentration of 0.1%
EDTA: EDTA stock solution 500 mM, (GIBCO, Cat. No.: 15575-038) final concentration: 0.1 mM
DTT: 1,4-Dithiothreitol (Roche Diagnostics GmbH, Cat. No.: 197777), final conc.: 1 mM MgCl2×6H2O: MERCK, Cat. No.: 105833.1000, final concentration: 10 mM
Assay Dilution Buffer (ADB): 50 mM HEPES, 0.1 mM EGTA, 0.1 mM Na Vanadate, 0.1 mM β-glycerophosphate, 10 mM MgCl2, 1 mM DTT, 0.1% BSA, pH 7.5
Bead wash buffer: 10 g/L PBS (Phosphate buffered saline) with 2M NaCl+1% phosphoric acid.
In 40 μL volume, 26 μL of ADB diluted, purified recombinant human SYK360-635 [0.5 nM] was mixed with 4 μL of 10× concentrations of the test compounds, [usually 100 μM-0.003 μM] in [10%] DMSO and the mixture was incubated for 10 min at RT.
The kinase reaction was initiated by the addition of 10 μL 4× substrate cocktail containing the DYE peptide substrate [0 or 5 μM], ATP [20 μM] and ^33PγATP [2 μCi/rxn]. After incubation at 30° C. for 15 min, the reaction was terminated by the transfer of 25 μL pf the reaction sample to a 96 well 0.65 μm Millipore MADVNOB membrane/plate containing 200 μL 5 mM EDTA and 20% Streptavidine coated beads in PBS.
The unbound radionucleotides were washed under vacuum with 3×250 μL 2M NaCl; 2×250 μL 2M NaCl+1% phosphoric acid; 1×250 μL H2O. After the last wash membrane/plates were transferred to an adaptor plate, heat dried for 15 min at 60° C., and 50 μL scintillation cocktail was added to each well and 4 h later the amount of radioactivity was counted in a top counter.
The percent inhibition was calculated based on the uninhibited enzyme rate: % Inhibition=100/(1+(IC50/Inhibitor conc)^n)
The IC50 was calculated using a non-linear curve fit with XLfit software (ID Business Solution Ltd., Guilford, Surrey, UK).

SMILES	IC50 (human whole blood) [µM]	IC50 (RAMOS) [µM]	IC50 [1] [µM]
CN1CCC(NC(=O)c2c[nH]nc2-c2nc3c(s2)CCCC3)CC1 [Compound I-24, N-(1-methylpiperidin-4-yl)-3-(4,5,6,7-tetrahydrobenzo[d]thiazol-2-yl)-1H-pyrazole-4-carboxamide]	> 50	–	–
CCOC(=O)c1c[nH]nc1-c1nc2c(s1)CCC2 [Compound I-15, ethyl 3-(5,6-dihydro-4H-cyclopenta[d]thiazol-2-yl)-1H-pyrazole-4-carboxylate]	–	> 34.1	> 10
CCOC(=O)c1c[nH]nc1-c1nc2c(s1)CCCC2 [Compound I-14, ethyl 3-(4,5,6,7-tetrahydrobenzo[d]thiazol-2-yl)-1H-pyrazole-4-carboxylate]	–	> 34.1	> 10
O=C(NC1CCOCC1)c1c[nH]nc1-c1nc2c(s1)CCCC2 [Compound I-23, N-(tetrahydro-2H-pyran-4-yl)-3-(4,5,6,7-tetrahydrobenzo[d]thiazol-2-yl)-1H-pyrazole-4-carboxamide]	–	> 34.1	7.87
O=C(Nc1c[nH]nc1-c1nc2ccccc2s1)C1CC1 [Compound I-6, Cyclopropanecarboxylic acid (3-benzothiazol-2-yl-1H-pyrazol-4-yl)-amide]	–	12	2.76
COc1cccc(-c2n[nH]cc2C(=O)NC(C)(C)C)n1 [Compound I-11, N-tert-butyl-3-(6-methoxypyridin-2-yl)-1H-pyrazole-4-carboxamide]	–	> 34.1	7.95
Cc1ccc2[nH]c(-c3ncsc3NC3CCCC3)nc2c1 [Compound I-43, N-cyclopentyl-4-(5-methyl-1H-benzo[d]imidazol-2-yl)thiazol-5-amine]	–	> 34.1	0.699
Cc1ccc2[nH]c(-c3ncsc3NCC(C)C)nc2c1 [Compound I-44, N-isobutyl-4-(5-methyl-1H-benzo[d]imidazol-2-yl)thiazol-5-amine]	–	7.98	0.621
c1ccc(-c2ncc(-c3cc[nH]n3)s2)cc1 [Compound I-1, 2-Phenyl-5-(1H-pyrazol-3-yl)-thiazole]	–	–	35.2
CC(C)(CO)C(=O)Nc1c[nH]nc1-c1nc2ccccc2s1 [Compound I-28, N-(3-Benzothiazol-2-yl-1H-pyrazol-4-yl)-3-hydroxy-2,2-dimethyl-propionamide]	–	6.41	1.13
CCC(C)(C)Nc1scnc1-c1nc2cc(C)ccc2[nH]1 [Compound I-42, 4-(5-methyl-1H-benzo[d]imidazol-2-yl)-N-tert-pentylthiazol-5-amine]	> 50	–	1.62
CCOC(=O)c1c[nH]nc1-c1nc2ccccn2n1 [Compound I-2, 3-[1,2,4]Triazolo[1,5-a]pyridin-2-yl-1H-pyrazole-4-carboxylic acid ethyl ester]	–	> 34.1	0.113
Cc1ccc2sc(-c3n[nH]cc3C(=O)NC(C)(C)CO)cc2c1 [Compound I-9, N-(1-hydroxy-2-methylpropan-2-yl)-3-(5-methylbenzo[b]thiophen-2-yl)-1H-pyrazole-4-carboxamide]	> 50	–	> 10
Cc1ccc2sc(-c3n[nH]cc3C(=O)NC(C)(C)C)cc2c1 [Compound I-10, N-tert-butyl-3-(5-methylbenzo[b]thiophen-2-yl)-1H-pyrazole-4-carboxamide]	> 50	–	> 10
O=C(NC1CCCC1)c1c[nH]nc1-c1nc(-c2ccccc2)cs1 [Compound I-20, N-cyclopentyl-3-(4-phenylthiazol-2-yl)-1H-pyrazole-4-carboxamide]	> 50	–	0.215
c1cncc(Nc2scnc2-c2nc3cnccc3[nH]2)c1 [Compound I-41]	–	> 31.2	5.44
O=C(NC1CCOCC1)c1c[nH]nc1-c1nc2c(s1)CCC2 [Compound I-22, 3-(5,6-dihydro-4H-cyclopenta[d]thiazol-2-yl)-N-(tetrahydro-2H-pyran-4-yl)-1H-pyrazole-4-carboxamide]	–	> 34.1	1.99
O=C(Nc1c[nH]nc1-c1nc2ccccc2s1)C1CCC1 [Compound I-26, Cyclobutanecarboxylic acid (3-benzothiazol-2-yl-1H-pyrazol-4-yl)-amide]	–	–	1.23
CC(C)(C)NC(=O)c1c[nH]nc1-c1nc2c(s1)CCCC2 [Compound I-19, N-tert-butyl-3-(4,5,6,7-tetrahydrobenzo[d]thiazol-2-yl)-1H-pyrazole-4-carboxamide]	> 50	> 34.1	–
CC(=O)OCC(C)(C)C(=O)Nc1c[nH]nc1-c1nc2ccccc2s1 [Compound I-27, Acetic acid 2-(3-benzothiazol-2-yl-1H-pyrazol-4-ylcarbamoyl)-2-methyl-propyl ester]	–	15.5	4.64

Continued by falling IC50 (RAMOS), values first:

IC50 (human whole blood) [µM]	IC50 (RAMOS) [µM]	IC50 [1] [µM]	SMILES
–	5.41	2.08	CC(C)C(=O)Nc1c[nH]nc1-c1nc2ccccc2s1 [Compound I-3, N-(3-Benzothiazol-2-yl-1H-pyrazol-4-yl)-isobutyramide]
–	5.21	4.61	O=C(Nc1c[nH]nc1-c1nc2ccccc2s1)C1CCOCC1 [Compound I-25, Tetrahydro-pyran-4-carboxylic acid (3-benzothiazol-2-yl-1H-pyrazol-4-yl)-amide]
–	4.65	1.28	O=C(Nc1c[nH]nc1-c1nc2ccccc2s1)C1CCCC1 [Compound I-5, Cyclopenanecarboxylic acid (3-benzothiazol-2-yl-1H-pyrazol-4-yl)-amide]
–	3.83	0.621	CC(C)(C)C(=O)Nc1c[nH]nc1-c1nc2ccccc2s1 [Compound I-4, N-(3-Benzothiazol-2-yl-1H-pyrazol-4-yl)-2,2-dimethyl-propionamide]
2.87	0.986	–	CC(C)(CO)NC(=O)c1c[nH]nc1-c1nc2ccccc2[nH]1 [Compound I-39, 3-(1H-Benzoimidazol-2-yl)-1H-pyrazole-4-carboxylic acid (2-hydroxy-1,1-dimethyl-ethyl)-amide]
1.92	0.92	0.0549	CC(C)(CO)C(=O)Nc1c[nH]nc1-c1nc2ccccc2[nH]1 [Compound I-35, N-[3-(1H-Benzoimidazol-2-yl)-1H-pyrazol-4-yl]-3-hydroxy-2,2-dimethyl-propionamide]
–	0.764	0.487	Cc1cccc2[nH]c(-c3ncsc3Nc3cccnc3)nc12 [Compound I-40, 4-(4-methyl-1H-benzo[d]imidazol-2-yl)-N-(pyridin-3-yl)thiazol-5-amine]
0.87	0.483	–	O=C(NC1CCOCC1)c1c[nH]nc1-c1nc2ccccc2[nH]1 [Compound I-38, 3-(1H-Benzoimidazol-2-yl)-1H-pyrazole-4-carboxylic acid (tetrahydro-pyran-4-yl)-amide]
2.54	0.292	–	CC(C)NC(=O)c1c[nH]nc1-c1nc2ccccc2[nH]1 [Compound I-36, 3-(1H-Benzoimidazol-2-yl)-1H-pyrazole-4-carboxylic acid isopropylamide]
2.86	0.14	–	CC(C)(C)NC(=O)c1c[nH]nc1-c1nc2ccccc2[nH]1 [Compound I-37, 3-(1H-Benzoimidazol-2-yl)-1H-pyrazole-4-carboxylic acid tert-butylamide]

Reference: patent publication US9988378B2, “1 H-pyrazole and 4,5-disubstituted thiazole inhibitors of SYK” (Hoffmann-La Roche Inc., priority 2012, dated 2018)
